# Source: patent US6399672B1, “Oil soluble metal-containing compounds, compositions and methods” (Sartomer Technologies Co., Inc., priority 1999, dated 2002)
# Test: Solubility of Zn salts in organic compounds
# Details: mixed with organic monomers listed per example in b131-b162 (glycol di(meth)acrylates, trimethylolpropane triacrylate etc.)
# Source text: The organic compounds tested with the products of each of the preceding examples were as follows: […]
substance,measurement,value
zinc dimethacrylate,solubility in organic compounds,insoluble
